Source: PMC8911550, “The Effects of Side-Chain Configurations of a Retro–Inverso-Type Inhibitor on the Human T-Cell Leukemia Virus (HTLV)-1 Protease” (Molecules, 2022)
Numbered stars: 1 amine (or outer) side, 2 acyl side, 3 side chain; on linkers, the order of the positions; unused ones are H or OH. Square brackets hold non-standard residues; d marks the D form. Ends that are not written are not given here. Peptide text beside a SMILES is read from it. X1 = CC(C)C[C@H](C(=O)[*:2])[C@H](O)C[C@H]1CCCN1[*:1]; d(aIle) = CC[C@H](C)[C@@H](N)C(=O)O; aIle = CC[C@@H](C)[C@H](N)C(=O)O

What was measured:
[1] = tested on: recombinant HTLV-1 protease; assay: Cleavage of allo-Ile-containing substrates by recombinant HTLV-1 protease, analytical HPLC; format: biochemical, human T-cell leukemia virus type 1 (HTLV-1); details: decrease in substrate by analytical HPLC, Figure 3
Experimental: Each synthesized substrate (4–6) was then treated with the recombinant HTLV-1 protease, and the decrease in each substrate level was monitored using analytical HPLC [15].
Figure 3 Cleavage reaction of the substrates containing allo-Ile residues by the HTLV-1 protease: blue, original substrate; orange, substrate 4; gray, substrate 5; yellow, substrate 6.

[2] = target: T1, recombinant HTLV-1 protease (1-116, L40I) (Human T-cell leukemia virus 1, UniProt P10274, L489I); assay: biochemical; format: biochemical, human T-cell leukemia virus type 1 (HTLV-1); details: for inhibitory activity relative to RI-inhibitor 3: effect of D-allo-Ile replacement, RI-inhibitor 3 as reference, recombinant protease
T1 construct: examined using the recombinant HTLV-1 protease (1-116, L40I) and a substrate dodecapeptide; made in house; host or cells: E. coli BL21(DE3)
Experimental: The reaction mixture was directly analyzed by analytical HPLC with a C18 reversed-phase column. Each IC50 value of the RI-type inhibitor was obtained from the sigmoidal dose–response curve (Figure S6) calculated from the decrease in substrate concentration.
The reaction mixture was analyzed on a Cosmosil 5C18-ARII column (4.6 × 150 mm), employing a linear gradient of CH3CN (10–40%, 30 min) in aqueous 0.1% TFA. Each IC50 value was obtained from a sigmoidal dose–response curve obtained from the decrease in the substrate in the reaction mixture (Figure S3). Each experiment was repeated three times.

HTLV-1 protease = details: ref [20]; cited from earlier work

T1 sequence (P10274 450-565 L489I): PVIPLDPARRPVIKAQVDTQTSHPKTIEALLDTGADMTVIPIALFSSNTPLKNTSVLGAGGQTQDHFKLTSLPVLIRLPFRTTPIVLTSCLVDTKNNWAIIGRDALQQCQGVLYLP

| Compound | cleavage rate compared with original substrate, in words [1] | IC50 [2] | inhibitory activity relative to RI-inhibitor 3 [2] | further results |
| --- | --- | --- | --- | --- |
| substrate 5: substrate 5 containing an allo-Ile residue at the non-prime site (6-allo-Ile) (KGPPV[aIle]LPIQAP-NH2; N-terminus assumed; SMILES CC[C@@H](C)[C@H](NC(=O)[C@@H](NC(=O)[C@@H]1CCCN1C(=O)[C@@H]1CCCN1C(=O)CNC(=O)[C@@H](N)CCCCN)C(C)C)C(=O)N[C@@H](CC(C)C)C(=O)N1CCC[C@H]1C(=O)N[C@H](C(=O)N[C@@H](CCC(N)=O)C(=O)N[C@@H](C)C(=O)N1CCC[C@H]1C(N)=O)[C@@H](C)CC) | clearly showed a lower cleavage rate than the original substrate | – | – | – |
| substrate 6: substrate 6 containing two allo-Ile residues at both sites (6,9-allo-Ile) (KGPPV[aIle]LP[aIle]QAP-NH2; N-terminus assumed; SMILES CC[C@@H](C)[C@H](NC(=O)[C@@H](NC(=O)[C@@H]1CCCN1C(=O)[C@@H]1CCCN1C(=O)CNC(=O)[C@@H](N)CCCCN)C(C)C)C(=O)N[C@@H](CC(C)C)C(=O)N1CCC[C@H]1C(=O)N[C@H](C(=O)N[C@@H](CCC(N)=O)C(=O)N[C@@H](C)C(=O)N1CCC[C@H]1C(N)=O)[C@H](C)CC) | clearly showed a lower cleavage rate than the original substrate | – | – | – |
| substrate 4: substrate 4 containing an allo-Ile residue at the prime site (9-allo-Ile) (KGPPVILP[aIle]QAP-NH2; N-terminus assumed; SMILES CC[C@@H](C)[C@H](NC(=O)[C@@H]1CCCN1C(=O)[C@H](CC(C)C)NC(=O)[C@@H](NC(=O)[C@@H](NC(=O)[C@@H]1CCCN1C(=O)[C@@H]1CCCN1C(=O)CNC(=O)[C@@H](N)CCCCN)C(C)C)[C@@H](C)CC)C(=O)N[C@@H](CCC(N)=O)C(=O)N[C@@H](C)C(=O)N1CCC[C@H]1C(N)=O) | cleaved at a slightly lower rate than the original substrate | – | – | – |
| CC[C@@H](C)[C@@H](NC(=O)[C@@H](CC(C)C)[C@H](O)C[C@H]1CCCN1C(=O)[C@H](NC(C)=O)[C@@H](C)CC)C(=O)N[C@@H](C(=O)N1CCC[C@@H]1C(=O)N1CCC[C@@H]1C(N)=O)C(C)C [RI-inhibitor 8] (Ac-[d(aIle)][X1][dI][dV][dP][dP]-NH2) | – | 110 µM | doubled the inhibitory activity | – |
| C[C@@H](NC(=O)[C@H]1N(C(=O)[C@@H](O)[C@H](Cc2ccccc2)NC(=O)[C@@H](NC(=O)[C@@H](NC(=O)CN2CCOCC2)c2ccccc2)C(C)(C)C)CSC1(C)C)C(C)(C)C [KNI-10729] | – | – | – | inhibition at 50 nM (HTLV-1 protease): 79% |
| CC[C@@H](C)[C@@H](NC(C)=O)C(=O)N1CCC[C@@H]1C[C@@H](O)[C@H](CC(C)C)C(=O)N[C@@H](C(=O)N[C@@H](C(=O)N1CCC[C@@H]1C(=O)N1CCC[C@@H]1C(N)=O)C(C)C)[C@@H](C)CC [RI-inhibitor 9] (Ac-[dI][X1][d(aIle)][dV][dP][dP]-NH2) | – | 130 µM | doubled the inhibitory activity | – |
| CC[C@@H](C)[C@@H](NC(=O)[C@@H](CC(C)C)[C@H](O)C[C@H]1CCCN1C(=O)[C@H](NC(C)=O)[C@H](C)CC)C(=O)N[C@@H](C(=O)N1CCC[C@@H]1C(=O)N1CCC[C@@H]1C(N)=O)C(C)C [RI-inhibitor 3] (Ac-[dI][X1][dI][dV][dP][dP]-NH2) | – | 240 µM | – | – |
| CC[C@H](C)[C@@H](NC(=O)[C@@H](CC(C)C)[C@H](O)C[C@H]1CCCN1C(=O)[C@H](NC(C)=O)[C@@H](C)CC)C(=O)N[C@@H](C(=O)N1CCC[C@@H]1C(=O)N1CCC[C@@H]1C(N)=O)C(C)C [RI-inhibitor 10] (Ac-[d(aIle)][X1][d(aIle)][dV][dP][dP]-NH2) | – | 85 µM | tripled the inhibitory activity | – |
